The assay deals with T1, wild type AXL (wtAXL) receptor tyrosine kinase (Homo sapiens, UniProt P30530).
T1 construct: WtAXL cDNA was cloned into vector pLXSN(ESK) and transfected into Phoenix E packaging cells; expressed in transfected cells; host or cells: NIH3T3 N7 (mouse fibroblasts), retrovirally infected, clone 22
T1 sequence (P30530 26-894): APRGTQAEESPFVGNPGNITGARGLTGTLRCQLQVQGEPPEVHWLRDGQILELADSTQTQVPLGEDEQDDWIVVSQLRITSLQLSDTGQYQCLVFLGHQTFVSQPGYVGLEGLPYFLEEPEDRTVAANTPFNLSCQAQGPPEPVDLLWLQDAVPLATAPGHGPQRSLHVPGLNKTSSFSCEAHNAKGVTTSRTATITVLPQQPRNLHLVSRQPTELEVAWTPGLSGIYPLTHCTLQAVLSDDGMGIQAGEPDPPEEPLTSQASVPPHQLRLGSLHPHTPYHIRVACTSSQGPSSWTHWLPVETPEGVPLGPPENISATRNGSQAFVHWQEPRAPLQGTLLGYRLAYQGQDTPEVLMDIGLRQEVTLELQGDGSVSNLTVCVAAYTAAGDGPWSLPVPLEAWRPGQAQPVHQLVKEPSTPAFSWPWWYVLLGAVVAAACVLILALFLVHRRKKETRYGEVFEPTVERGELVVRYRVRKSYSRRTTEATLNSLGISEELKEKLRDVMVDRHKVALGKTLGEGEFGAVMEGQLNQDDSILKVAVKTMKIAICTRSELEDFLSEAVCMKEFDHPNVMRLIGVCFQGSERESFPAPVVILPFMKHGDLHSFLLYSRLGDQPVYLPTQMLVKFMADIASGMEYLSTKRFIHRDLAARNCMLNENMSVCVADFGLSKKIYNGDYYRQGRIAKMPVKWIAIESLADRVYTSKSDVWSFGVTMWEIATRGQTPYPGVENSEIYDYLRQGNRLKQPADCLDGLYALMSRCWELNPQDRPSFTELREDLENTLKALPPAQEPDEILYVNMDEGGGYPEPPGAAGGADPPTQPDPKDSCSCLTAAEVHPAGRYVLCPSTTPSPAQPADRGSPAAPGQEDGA
Nature of the assay: NIH-3T3-AXL cellular kinase assay (pY-AXL-ELISA). The class given is cell-based. To be noted: NIH-3T3-AXL (clone 22) cells, serum depleted, compounds 1 h; Table Ia. In a few lines: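 NIH3T3 cells stably expressing human wild-type AXL (retroviral, puromycin-selected clones) were treated with serial compound dilutions for 1 h and lysed. AXL tyrosine phosphorylation was measured by ELISA on the lysates: biotinylated 4G10 anti-phosphotyrosine, streptavidin-alkaline phosphatase, AttoPhos fluorescence at 430/560 nm after 90 min.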

Structures are written as SMILES.

Experimental findings from patent US9169241B2, “Quinolinyloxyphenylsulfonamides” (Max-Planck-Gesellschaft Zur Forderung der Wissenschaften …, priority 2009, dated 2015) are described below.

Compound `COc1cc2c(Oc3ccc(NS(=O)(=O)c4c(Cl)cccc4Cl)cc3F)ccnc2cc1OCCCN1CCCCC1` [Example 6, 2,6-Dichloro-N-{3-fluoro-4-[6-methoxy-7-(3-piperidin-1-yl-propoxy)-quinolin-4-yloxy]-phenyl}-benzenesulfonamide] had an IC50 of less than 0.5 µM.

In the case of `COc1cc2c(Oc3ccc(NS(=O)(=O)c4ccccc4[N+](=O)[O-])cc3F)ccnc2cc1OCCCN1CCCCC1` [Example 7, N-{3-Fluoro-4-[6-methoxy-7-(3-piperidin-1-yl-propoxy)-quinolin-4-yloxy]-phenyl}-2-nitro-benzenesulfonamide], the IC50 is less than 0.5 µM.

`COc1cc2c(Oc3ccc(NS(=O)(=O)c4cccc(-c5ccccc5)c4)cc3F)ccnc2cc1OCCCN1CCCCC1` [Example 8, Biphenyl-3-sulfonic acid {3-fluoro-4-[6-methoxy-7-(3-piperidin-1-yl-propoxy)-quinolin-4-loxy]-phenyl}-amide] displayed an IC50 of less than 0.5 µM.

`COc1cc2c(Oc3ccc(NS(=O)(=O)c4cccc(Oc5ccccc5)c4)cc3F)ccnc2cc1OCCCN1CCCCC1` [Example 10, N-{3-Fluoro-4-[6-methoxy-7-(3-piperidin-1-yl-propoxy)-quinolin-4-yloxy]-phenyl}-3-phenoxy-benzenesulfonamide] returned an IC50 of less than 0.5 µM.

Compound `COc1cc2c(Oc3ccc(NS(=O)(=O)c4c(F)cccc4F)cc3F)ccnc2cc1OCCCN1CCCCC1` [Example 11, 2,6-Difluoro-N-{3-fluoro-4-[6-methoxy-7-(3-piperidin-1-yl-propoxy)-quinolin-4-yloxy]-phenyl}-benzenesulfonamide] yielded an IC50 of less than 0.5 µM.

Regarding `COc1cc2c(Oc3ccc(NS(=O)(=O)c4cc(Cl)cc(Cl)c4OC)cc3F)ccnc2cc1OCCCN1CCCCC1` [Example 34, 3,5-Dichloro-N-{3-fluoro-4-[6-methoxy-7-(3-piperidin-1-yl-propoxy)-quinolin-4-yloxy]-phenyl}-2-methoxy-benzenesulfonamide], the IC50 is less than 0.5 µM.

Regarding `COc1cc2c(Oc3ccc(NS(=O)(=O)c4cc(Cl)cc(Cl)c4OC)cc3F)ccnc2cc1OCCCN1CCN(C)CC1` [Example 35, 3,5-Dichloro-N-(3-fluoro-4-{6-methoxy-7-[3-(4-methyl-piperazin-1-yl)-propoxy]-quinolin-4-yloxy}-phenyl)-2-methoxy-benzenesulfonamide], the IC50 was less than 0.5 µM.

For the compound `COc1cc2c(Oc3ccc(NS(=O)(=O)c4ccccc4Cl)cc3F)ccnc2cc1OCCCN1CCCC(C)C1` (stereo not shown) [Example 38, 2-Chloro-N-(3-fluoro-4-{6-methoxy-7-[3-(3-methyl-piperidin-1-yl)-propoxy]-quinolin-4-yloxy}-phenyl)-benzenesulfonamide], the IC50 was less than 0.5 µM.

In the case of `COc1cc2c(Oc3ccc(NS(=O)(=O)c4ccccc4[N+](=O)[O-])cc3F)ccnc2cc1OCCCN1CCCC(C)C1` (stereo not shown) [Example 40, N-(3-Fluoro-4-{6-methoxy-7-[3-(3-methyl-piperidin-1-yl)-propoxy]-quinolin-4-yloxy}-phenyl)-2-nitro-benzenesulfonamide], the IC50 is less than 0.5 µM.

In turn, `COc1cc2c(Oc3ccc(NS(=O)(=O)c4ccccc4OC(F)(F)F)cc3F)ccnc2cc1OCCCN1CCCC(C)C1` (stereo not shown) [Example 45, N-(3-Fluoro-4-{6-methoxy-7-[3-(3-methyl-piperidin-1-yl)-propoxy]-quinolin-4-yloxy}-phenyl)-2-trifluoromethoxy-benzenesulfonamide] showed an IC50 of less than 0.5 µM.

In turn, `COc1cc2c(Oc3ccc(NS(=O)(=O)c4ccc(F)cc4F)cc3F)ccnc2cc1OCCCN1CCCC(C)C1` (stereo not shown) [Example 47, 2,4-Difluoro-N-(3-fluoro-4-{6-methoxy-7-[3-(3-methyl-piperidin-1-yl)-propoxy]-quinolin-4-yloxy}-phenyl)-benzenesulfonamide] displayed an IC50 of less than 0.5 µM.

On to `COc1cc2c(Oc3ccc(NS(=O)(=O)c4ccc(F)c(F)c4F)cc3F)ccnc2cc1OCCCN1CCCC(C)C1` (stereo not shown) [Example 49, 2,3,4-Trifluoro-N-(3-fluoro-4-{6-methoxy-7-[3-(3-methyl-piperidin-1-yl)-propoxy]-quinolin-4-yloxy}-phenyl)-benzenesulfonamide], for which the IC50 was less than 0.5 µM.

The compound `COc1cc2c(Oc3ccc(NS(=O)(=O)c4c(Cl)cccc4Cl)cc3F)ccnc2cc1OCCCN1CCCC(C)C1` (stereo not shown) [Example 51, 2,6-Dichloro-N-(3-fluoro-4-{6-methoxy-7-[3-(3-methyl-piperidin-1-yl)-propoxy]-quinolin-4-yloxy}-phenyl)-benzenesulfonamide] displayed an IC50 of less than 0.5 µM.

The compound `COc1cc2c(Oc3ccc(NS(=O)(=O)c4cccc(Cl)c4F)cc3F)ccnc2cc1OCCCN1CCCC(C)C1` (stereo not shown) [Example 54, 3-Chloro-2-fluoro-N-(3-fluoro-4-{6-methoxy-7-[3-(3-methyl-piperidin-1-yl)-propoxy]-quinolin-4-yloxy}-phenyl)-benzenesulfonamide] returned an IC50 of less than 0.5 µM.

In the case of `COc1cc2c(Oc3ccc(NS(=O)(=O)c4cc(C)ccc4F)cc3F)ccnc2cc1OCCCN1CCCC(C)C1` (stereo not shown) [Example 55], the IC50 is less than 0.5 µM.

Consider `COc1cc2c(Oc3ccc(NS(=O)(=O)c4ccc(C)c(F)c4)cc3F)ccnc2cc1OCCCN1CCCC(C)C1` (stereo not shown) [Example 56, 3-Fluoro-N-(3-fluoro-4-{6-methoxy-7-[3-(3-methyl-piperidin-1-yl)-propoxy]-quinolin-4-yloxy}-phenyl)-4-methyl-benzenesulfonamide], for which the IC50 is less than 0.5 µM.

As for `COc1cc2c(Oc3ccc(NS(=O)(=O)c4ccc(F)c(Cl)c4)cc3F)ccnc2cc1OCCCN1CCCC(C)C1` (stereo not shown) [Example 57, 3-Chloro-4-fluoro-N-(3-fluoro-4-{6-methoxy-7-[3-(3-methyl-piperidin-1-yl)-propoxy]-quinolin-4-yloxy}-phenyl)-benzenesulfonamide], the IC50 was less than 0.5 µM.

Compound `COc1cc2c(Oc3ccc(NS(=O)(=O)c4cccc5ccccc45)cc3F)ccnc2cc1OCCCN1CCCC(C)C1` (stereo not shown) [Example 58, Naphthalene-1-sulfonic acid (3-fluoro-4-{6-methoxy-7-[3-(3-methyl-piperidin-1-yl)-propoxy]-quinolin-4-yloxy}-phenyl)-amide] showed an IC50 of less than 0.5 µM.

For `COc1cc2c(Oc3ccc(NS(=O)(=O)c4cccc(Oc5ccccc5)c4)cc3F)ccnc2cc1OCCCN1CCCC(C)C1` (stereo not shown) [Example 59, N-(3-Fluoro-4-{6-methoxy-7-[3-(3-methyl-piperidin-1-yl)-propoxy]-quinolin-4-yloxy}-phenyl)-3-phenoxy-benzenesulfonamide], the IC50 is less than 0.5 µM.

With `COc1cc2c(Oc3ccc(NS(=O)(=O)c4ccc(Cl)s4)cc3F)ccnc2cc1OCCCN1CCCC(C)C1` (stereo not shown) [Example 63, 5-Chloro-thiophene-2-sulfonic acid (3-fluoro-4-{6-methoxy-7-[3-(3-methyl-piperidin-1-yl)-propoxy]-quinolin-4-yloxy}-phenyl)-amide], the IC50 was less than 0.5 µM.

Compound `COc1cc2c(Oc3ccc(NS(=O)(=O)c4c(F)cccc4F)cc3F)ccnc2cc1OCCCN1CCOCC1` [Example 77, 2,6-Difluoro-N-{3-fluoro-4-[6-methoxy-7-(3-morpholin-4-yl-propoxy)-quinolin-4-yloxy]-phenyl}-benzenesulfonamide] had an IC50 of less than 0.5 µM.

Consider `COc1cc2c(Oc3ccc(NS(=O)(=O)c4ccccc4OC(F)(F)F)cc3F)ccnc2cc1OCCCN1CCCCC1` [Example 78, N-{3-Fluoro-4-[6-methoxy-7-(3-piperidin-1-yl-propoxy)-quinolin-4-yloxy]-phenyl}-2-trifluoromethoxy-benzenesulfonamide], for which the IC50 is less than 0.5 µM.

`COc1cc2c(Oc3ccc(NS(=O)(=O)c4ccccc4F)cc3F)ccnc2cc1OCCN1CCOCC1` [Example 81, 2-Fluoro-N-{3-fluoro-4-[6-methoxy-7-(2-morpholin-4-yl-ethoxy)-quinolin-4-yloxy]-phenyl}-benzenesulfonamide]: the IC50 is less than 0.5 µM.

For `COc1cc2c(Oc3ccc(NS(=O)(=O)c4c(F)cccc4F)cc3F)ccnc2cc1OCCN1CCOCC1` [Example 82, 2,6-Difluoro-N-{3-fluoro-4-[6-methoxy-7-(2-morpholin-4-yl-ethoxy)-quinolin-4-yloxy]-phenyl}-benzenesulfonamide], the IC50 was less than 0.5 µM.

For the compound `COc1cc2c(Oc3ccc(NS(=O)(=O)c4ccccc4C(F)(F)F)cc3Cl)ccnc2cc1OCCCN1CCN(C)CC1` [Example 87, N-(3-Chloro-4-{6-methoxy-7-[3-(4-methyl-piperazin-1-yl)-propoxy]-quinolin-4-yloxy}-phenyl)-2-trifluoromethyl-benzenesulfonamide], the IC50 is less than 0.5 µM.
